Measurements from patent US20240317756A1, “INHIBITORS OF BRUTON'S TYROSINE KINASE” (Pharmacyclics LLC, priority 2006, published 2024).
pIC50: −log10 of the molar value.

Legend:
[1] = tested on: Tec family kinases, including Btk, and Src family kinases; assay: in vitro profiling against a panel of greater than 100 kinases; type: biochemical
Excerpt: By way of example only and in some embodiments, the observed potency, selectivity, and cell permeability of compounds such as Compound 2 are appropriate to incorporate these molecules into a Kinase-targeted, activity based probe that allows direct visualization of Kinase activity in intact cells. […] Without limiting the scope of the compositions and methods described herein, it is postulated that the structural basis for the selectivity is covalent modification of a non-catalytic cysteine residue (Cys 481 in Btk) that is conserved in the ATP binding pocket of the Tec family and several other kinases.

EGFR = EGFR (Homo sapiens (Human), UniProt P00533); assay: in vitro HotSpot kinase assay, EGFR; type: biochemical; conditions: Table 2, 1 uM ATP, one hour incubation with inhibitor
BTK = BTK (Homo sapiens (Human), UniProt Q06187); assay: in vitro HotSpot kinase assay, BTK; type: biochemical; conditions: Table 2, 1 uM ATP, one hour incubation with inhibitor
lymphoma cell line DOHH2 = assay: DOHH2 cell proliferation assay (Alamar Blue); type: cell-based
Procedure: After 72 hours, cell number was measured using Alamar Blue using manufacturer's protocol. A dilution series of untreated cells was run in parallel to verify that the Alamar Blue assay reliably reflected cell number and that growth conditions were not limiting. […] GI50 values were confirmed in two or more separate experiments for each cell line.
Analogs are generated that are Btk inhibitors and that are cytotoxic to the lymphoma cell line DOHH2. For the DOHH2 cell proliferation assay, cells were seeded in 96-well plates in standard growth media (RPMI+10% fetal calf serum) and compounds were added in a 9-point dilution series ranging from 10 uM to 0.04 uM with DMSO at 0.1% final concentration in all wells. After 72 hours, cell number was measured using Alamar Blue using manufacturer's protocol. A dilution series of untreated cells was run in parallel to verify that the Alamar Blue assay reliably reflected cell number and that growth conditions were not limiting.

Egr-1 = assay: expression of ERK transcriptional target Egr-1; type: cell-based; conditions: 1 uM
[2] = tested on: pERK and BCR pathway phosphorylation in DOHH2 cells; assay: BCR signal transduction pathway phosphorylation, DOHH2; type: cell-based; conditions: unstimulated DOHH2 cells; read-out: IC50 for decrease of pERK levels
Excerpt: To identify biomarkers that correlate with response to Compound 1, phosphorylation events in the BCR signal transduction pathway were investigated.
However, when we examined basal phosphorylation levels, we found higher basal phosphorylation in DOHH2 compared to Ramos, with phospho-ERK in particular indicating higher levels of basal or tonic signaling in DOHH2.

[3] = tested on: lymphoma cell line WSU-DLCL2; assay: BCR cross-linking by anti-IgG in WSU-DLCL2; type: cell-based; conditions: WSU-DLCL2, anti-IgG 30 ug/ml
[4] = plasma concentrations after oral dosing of rats; type: in vivo; conditions: single oral dose 8 mg/kg each in combination
Procedure: Blood samples were collected at 0.0833 (5 minutes), 0.333 (20 minutes), 1, 3, 6, 9, and 24 hours post-dosing from orally dosed rats.
Male jugular vein cannulated rats were administered a single dose of all test compounds at 8 mg/kg each, in combination by oral gavage. Dose volumes were adjusted based on body weight data collected immediately prior to dosing. Blood samples were collected at 0.0833 (5 minutes), 0.333 (20 minutes), 1, 3, 6, 9, and 24 hours post-dosing from orally dosed rats. The samples were collected into plasma separator Microtainer tubes with anticoagulant (lithium heparin). Plasma samples were prepared by centrifugation (5 min at 5000×g), and at least 100 μL were transferred to storage tubes and stored frozen at −80° C. Plasma samples were thawed and 75 uL aliquots were transferred to centrifuge tubes to which 10 μL aliquots of internal standard solution (1 μg/mL) were added. The samples were not diluted with blank plasma prior to further processing. Soluble proteins were precipitated by the addition of 200 μL of acetonitrile, followed by centrifugation (20 min at 16,000×g). The samples were evaporated to dryness and reconstituted in 200 μL of water containing 0.2% formic acid and 10% methanol. All samples were loaded onto an autosampler maintained at 6° C. and evaluated for concentrations of test compounds using LC-MS/MS.

ITK = ITK (Homo sapiens (Human), UniProt Q08881); assay: in vitro HotSpot kinase assay, ITK; type: biochemical; conditions: Table 2, 1 uM ATP, one hour incubation with inhibitor
[5] = glutathione binding assay; conditions: 5 mM glutathione, 10 μM Btk inhibitor, room temperature, HPLC
Procedure: A calculated value (e.g (1/Btk IC50)/Glutathione conjugation rate) as shown in the Table 2) is used to compare compounds for their ratio between potency at inhibiting their target and their non-specific binding to other SH groups, such as those in glutathione. […] Calculated ratios such as these are used to quantitatively compare different compounds and select compounds for further study.
For the glutathione binding assays, 5 mM glutathione, 10 μM Btk inhibitor in DMSO (10 μL) and 6 equivalents of N′N′ Diisopropyl ethyl amine were combined in 1 mL potassium phosphate buffer. The mixture was incubated for 0, 15, 60 minutes at room temperature and the reaction was stopped with 10 equivalents of formic acid. 50 μL of each reaction mixture was injected on HPLC (Mobil Phase A: 0.2% formic acid in water, Mobile Phase B: 0.2% formic acid in acetonitrile, HPLC Column: Metasil Basic 3μ, 150×4.6 mm, 10% B, Gradient: 10% to 90% B, Detection: UV/Vis […]). Rate of reaction was reported as nmole GSH conjugate conversion per minute from the normalized ratio for area under the curve from HPLC chromatograms for both GSH conjugate and the parent.

JAK3 = JAK3 (Homo sapiens (Human), UniProt P52333); assay: in vitro HotSpot kinase assay, JAK3; type: biochemical; conditions: Table 2, 1 uM ATP, one hour incubation with inhibitor
LCK = LCK (Homo sapiens (Human), UniProt P06239); assay: in vitro HotSpot kinase assay, LCK; type: biochemical; conditions: Table 2, 1 uM ATP, one hour incubation with inhibitor
Lyn = Lyn (Homo sapiens (Human), UniProt P07948); assay: in vitro HotSpot kinase assay, Lyn; type: biochemical; conditions: purified enzymes, 33P-ATP, 1 uM ATP
YES = YES (Homo sapiens (Human), UniProt P07947); assay: in vitro HotSpot kinase assay, YES; type: biochemical; conditions: purified enzymes, 33P-ATP, 1 uM ATP
Fyn = Fyn (Homo sapiens (Human), UniProt P06241); assay: in vitro HotSpot kinase assay, Fyn; type: biochemical; conditions: purified enzymes, 33P-ATP, 1 uM ATP
FER = FER (Homo sapiens (Human), UniProt P16591); assay: in vitro HotSpot kinase assay, FER; type: biochemical; conditions: purified enzymes, 33P-ATP, 1 uM ATP
C-src = C-src (Homo sapiens (Human), UniProt P12931); assay: in vitro HotSpot kinase assay, C-src; type: biochemical; conditions: purified enzymes, 33P-ATP, 1 uM ATP
Excerpt: (§1) Table 1 is a table showing the degree of inhibition of a panel of kinases for two example compounds. […] Thus, subtle modifications in the linker moiety and the Michael acceptor moiety are important for the design of selective ACK inhibitors.

FGR = FGR (Homo sapiens (Human), UniProt P09769); assay: in vitro HotSpot kinase assay, FGR; type: biochemical; conditions: purified enzymes, 33P-ATP, 1 uM ATP
SYK = SYK (Homo sapiens (Human), UniProt P43405); assay: in vitro HotSpot kinase assay, SYK; type: biochemical; conditions: purified enzymes, 33P-ATP, 1 uM ATP
Excerpt: as §1

ABL = ABL (Homo sapiens (Human), UniProt P00519); assay: in vitro HotSpot kinase assay, ABL; type: biochemical; conditions: purified enzymes, 33P-ATP, 1 uM ATP
CSK = CSK (Homo sapiens (Human), UniProt P41240); assay: in vitro HotSpot kinase assay, CSK; type: biochemical; conditions: purified enzymes, 33P-ATP, 1 uM ATP
TEC = TEC (Homo sapiens (Human), UniProt P42680); assay: in vitro HotSpot kinase assay, TEC; type: biochemical; conditions: purified enzymes, 33P-ATP, 1 uM ATP
BLK = BLK (Homo sapiens (Human), UniProt P51451); assay: in vitro HotSpot kinase assay, BLK; type: biochemical; conditions: purified enzymes, 33P-ATP, 1 uM ATP
Brk = Brk (Homo sapiens (Human), UniProt Q13882); assay: in vitro HotSpot kinase assay, Brk; type: biochemical; conditions: purified enzymes, 33P-ATP, 1 uM ATP
HER4 = HER4 (Homo sapiens (Human), UniProt Q15303); assay: in vitro HotSpot kinase assay, HER4; type: biochemical; conditions: purified enzymes, 33P-ATP, 1 uM ATP
Excerpt: as §1

HER2 = HER2 (Homo sapiens (Human), UniProt P04626); assay: in vitro HotSpot kinase assay, HER2; type: biochemical; conditions: purified enzymes, 33P-ATP, 1 uM ATP
[6] = tested on: collagen-induced arthritis; assay: collagen-induced arthritis in the mouse; type: in vivo, Male DBA/lOlaHsd mice; conditions: 12.5 mg/kg or 50 mg/kg each day of an 11-day period
Procedure: […]. […] Dexamethasone was included as a positive control. Paw inflammation was scored from 0-5 and averaged across all paws from all animals for each group in the study.
. After paw inflammation was established, animals were randomized and Compound lor vehicle was dosed orally once per day starting at day 1. Paw inflammation was scored from 0-5 and averaged across all paws from all animals for each group in the study. […] Dexamethasone was included as a positive control.

Chain of EGFR (P00533 25-1210, species assumed): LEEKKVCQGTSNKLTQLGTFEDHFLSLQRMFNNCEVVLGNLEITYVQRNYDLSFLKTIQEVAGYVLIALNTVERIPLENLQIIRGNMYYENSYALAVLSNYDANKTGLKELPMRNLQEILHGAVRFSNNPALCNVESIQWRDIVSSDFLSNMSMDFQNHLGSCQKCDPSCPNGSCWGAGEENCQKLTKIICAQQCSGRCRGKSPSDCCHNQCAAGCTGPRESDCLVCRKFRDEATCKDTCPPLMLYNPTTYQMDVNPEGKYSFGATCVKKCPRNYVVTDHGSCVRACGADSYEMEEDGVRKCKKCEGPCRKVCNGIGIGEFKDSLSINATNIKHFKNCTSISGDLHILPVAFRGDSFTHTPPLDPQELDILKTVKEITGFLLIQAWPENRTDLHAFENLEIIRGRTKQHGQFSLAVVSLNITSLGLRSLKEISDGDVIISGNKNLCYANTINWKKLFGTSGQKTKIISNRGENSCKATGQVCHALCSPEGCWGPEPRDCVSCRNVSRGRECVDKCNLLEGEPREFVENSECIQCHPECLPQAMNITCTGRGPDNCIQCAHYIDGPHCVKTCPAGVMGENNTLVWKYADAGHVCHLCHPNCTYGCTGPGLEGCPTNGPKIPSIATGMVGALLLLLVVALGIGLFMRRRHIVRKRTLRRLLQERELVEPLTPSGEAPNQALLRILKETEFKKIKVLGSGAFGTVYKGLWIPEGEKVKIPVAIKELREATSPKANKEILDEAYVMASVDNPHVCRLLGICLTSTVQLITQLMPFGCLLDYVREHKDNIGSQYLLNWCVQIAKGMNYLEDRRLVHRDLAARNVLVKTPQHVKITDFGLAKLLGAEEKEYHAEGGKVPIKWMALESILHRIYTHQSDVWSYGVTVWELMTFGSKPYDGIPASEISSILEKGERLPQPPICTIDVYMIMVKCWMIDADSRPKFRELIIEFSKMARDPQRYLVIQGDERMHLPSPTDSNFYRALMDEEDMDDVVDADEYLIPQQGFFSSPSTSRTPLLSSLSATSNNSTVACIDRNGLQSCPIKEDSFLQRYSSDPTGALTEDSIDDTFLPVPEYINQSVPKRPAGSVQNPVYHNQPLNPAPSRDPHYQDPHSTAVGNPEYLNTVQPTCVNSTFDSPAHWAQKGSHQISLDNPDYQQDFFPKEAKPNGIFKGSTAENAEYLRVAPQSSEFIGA
Chain of BTK (Q06187 whole entry): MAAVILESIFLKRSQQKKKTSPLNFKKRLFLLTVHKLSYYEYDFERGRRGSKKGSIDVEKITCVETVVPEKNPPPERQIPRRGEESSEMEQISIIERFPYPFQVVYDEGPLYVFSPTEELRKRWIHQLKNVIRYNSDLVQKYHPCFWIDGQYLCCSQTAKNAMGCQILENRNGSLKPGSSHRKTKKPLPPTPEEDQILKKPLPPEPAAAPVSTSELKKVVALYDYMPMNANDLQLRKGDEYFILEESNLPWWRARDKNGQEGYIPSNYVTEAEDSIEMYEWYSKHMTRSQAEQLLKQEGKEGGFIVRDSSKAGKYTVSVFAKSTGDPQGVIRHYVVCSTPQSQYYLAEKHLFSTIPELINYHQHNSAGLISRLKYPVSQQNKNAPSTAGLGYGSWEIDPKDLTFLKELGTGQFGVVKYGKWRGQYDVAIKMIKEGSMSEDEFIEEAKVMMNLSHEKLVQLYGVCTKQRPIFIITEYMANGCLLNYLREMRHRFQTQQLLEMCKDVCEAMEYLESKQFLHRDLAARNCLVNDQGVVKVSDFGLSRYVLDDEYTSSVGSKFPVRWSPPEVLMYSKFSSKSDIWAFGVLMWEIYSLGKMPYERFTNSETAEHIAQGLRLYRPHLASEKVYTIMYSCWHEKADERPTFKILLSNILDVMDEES
Chain of ITK (Q08881 whole entry, species assumed): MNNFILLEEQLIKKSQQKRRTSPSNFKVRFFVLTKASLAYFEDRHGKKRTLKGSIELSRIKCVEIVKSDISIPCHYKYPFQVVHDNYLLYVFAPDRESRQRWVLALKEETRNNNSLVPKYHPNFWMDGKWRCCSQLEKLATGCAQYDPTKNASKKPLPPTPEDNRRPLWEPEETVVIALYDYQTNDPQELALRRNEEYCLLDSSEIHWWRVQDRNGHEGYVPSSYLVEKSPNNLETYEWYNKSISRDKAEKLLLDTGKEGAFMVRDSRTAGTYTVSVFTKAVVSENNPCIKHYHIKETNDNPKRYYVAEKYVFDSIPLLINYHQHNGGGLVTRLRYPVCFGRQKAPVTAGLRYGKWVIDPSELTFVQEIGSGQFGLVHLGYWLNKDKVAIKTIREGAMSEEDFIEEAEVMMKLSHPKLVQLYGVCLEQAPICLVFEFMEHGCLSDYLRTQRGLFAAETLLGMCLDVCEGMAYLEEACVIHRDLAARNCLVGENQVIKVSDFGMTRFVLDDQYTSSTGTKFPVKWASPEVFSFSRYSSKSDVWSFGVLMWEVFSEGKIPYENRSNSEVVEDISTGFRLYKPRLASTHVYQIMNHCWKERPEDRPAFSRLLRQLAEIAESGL
Chain of LCK (P06239 whole entry, species assumed): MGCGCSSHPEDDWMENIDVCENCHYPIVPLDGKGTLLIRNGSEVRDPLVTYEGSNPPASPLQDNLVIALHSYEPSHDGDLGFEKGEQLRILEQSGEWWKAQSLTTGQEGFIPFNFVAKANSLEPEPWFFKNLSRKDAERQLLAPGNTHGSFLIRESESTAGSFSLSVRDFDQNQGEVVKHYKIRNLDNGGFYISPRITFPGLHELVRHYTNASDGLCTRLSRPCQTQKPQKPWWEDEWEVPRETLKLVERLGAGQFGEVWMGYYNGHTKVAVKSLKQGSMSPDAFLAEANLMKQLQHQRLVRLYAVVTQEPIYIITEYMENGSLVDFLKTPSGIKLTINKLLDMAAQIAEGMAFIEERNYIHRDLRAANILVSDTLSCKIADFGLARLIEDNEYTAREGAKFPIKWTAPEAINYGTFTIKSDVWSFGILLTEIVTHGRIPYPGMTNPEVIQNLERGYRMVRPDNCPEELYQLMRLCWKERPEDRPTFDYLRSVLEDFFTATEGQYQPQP
Chain of JAK3 (P52333 whole entry, species assumed): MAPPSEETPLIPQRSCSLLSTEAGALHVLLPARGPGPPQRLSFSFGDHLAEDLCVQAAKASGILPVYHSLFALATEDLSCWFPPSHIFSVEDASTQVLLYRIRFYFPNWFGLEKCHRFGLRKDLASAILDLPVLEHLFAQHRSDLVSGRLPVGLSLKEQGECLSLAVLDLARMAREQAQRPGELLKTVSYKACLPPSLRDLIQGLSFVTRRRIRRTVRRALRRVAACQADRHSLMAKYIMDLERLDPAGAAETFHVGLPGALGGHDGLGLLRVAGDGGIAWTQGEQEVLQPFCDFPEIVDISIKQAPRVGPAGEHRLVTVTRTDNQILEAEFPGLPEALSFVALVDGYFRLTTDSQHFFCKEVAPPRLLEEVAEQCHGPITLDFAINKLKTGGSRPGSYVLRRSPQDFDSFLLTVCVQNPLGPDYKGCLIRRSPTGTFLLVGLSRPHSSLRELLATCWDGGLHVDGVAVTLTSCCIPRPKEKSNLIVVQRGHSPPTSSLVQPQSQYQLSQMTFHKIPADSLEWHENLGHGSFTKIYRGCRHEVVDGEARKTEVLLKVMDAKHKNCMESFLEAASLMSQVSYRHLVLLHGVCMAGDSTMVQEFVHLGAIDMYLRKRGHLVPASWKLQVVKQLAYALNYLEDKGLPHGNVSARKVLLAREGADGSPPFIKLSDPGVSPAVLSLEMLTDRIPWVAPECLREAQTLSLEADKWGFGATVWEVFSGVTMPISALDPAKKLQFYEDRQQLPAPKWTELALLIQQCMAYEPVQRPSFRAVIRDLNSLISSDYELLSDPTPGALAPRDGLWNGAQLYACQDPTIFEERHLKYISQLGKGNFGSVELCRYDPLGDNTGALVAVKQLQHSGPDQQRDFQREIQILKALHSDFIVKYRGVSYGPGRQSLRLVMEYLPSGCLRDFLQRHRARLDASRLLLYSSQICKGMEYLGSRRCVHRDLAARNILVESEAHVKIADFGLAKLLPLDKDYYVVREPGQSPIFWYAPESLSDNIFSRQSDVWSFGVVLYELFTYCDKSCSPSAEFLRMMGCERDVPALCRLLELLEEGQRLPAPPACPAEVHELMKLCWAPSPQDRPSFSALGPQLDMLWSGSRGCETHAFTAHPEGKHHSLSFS
Chain of FGR (P09769 whole entry, species assumed): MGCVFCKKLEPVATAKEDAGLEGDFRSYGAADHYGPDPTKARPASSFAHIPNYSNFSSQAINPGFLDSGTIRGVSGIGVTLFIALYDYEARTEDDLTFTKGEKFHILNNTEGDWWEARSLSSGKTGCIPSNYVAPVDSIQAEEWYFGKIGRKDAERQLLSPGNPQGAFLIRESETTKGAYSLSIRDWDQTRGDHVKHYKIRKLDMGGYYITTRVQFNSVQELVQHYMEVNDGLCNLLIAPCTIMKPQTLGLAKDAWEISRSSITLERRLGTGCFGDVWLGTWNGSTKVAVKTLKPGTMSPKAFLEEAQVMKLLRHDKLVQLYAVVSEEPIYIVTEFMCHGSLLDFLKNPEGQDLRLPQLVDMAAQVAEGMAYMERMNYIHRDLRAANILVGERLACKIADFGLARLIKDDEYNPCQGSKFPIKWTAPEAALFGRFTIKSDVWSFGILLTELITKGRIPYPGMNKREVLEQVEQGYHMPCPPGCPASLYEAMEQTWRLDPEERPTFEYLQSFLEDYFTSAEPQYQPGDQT
Chain of Brk (Q13882 whole entry, species assumed): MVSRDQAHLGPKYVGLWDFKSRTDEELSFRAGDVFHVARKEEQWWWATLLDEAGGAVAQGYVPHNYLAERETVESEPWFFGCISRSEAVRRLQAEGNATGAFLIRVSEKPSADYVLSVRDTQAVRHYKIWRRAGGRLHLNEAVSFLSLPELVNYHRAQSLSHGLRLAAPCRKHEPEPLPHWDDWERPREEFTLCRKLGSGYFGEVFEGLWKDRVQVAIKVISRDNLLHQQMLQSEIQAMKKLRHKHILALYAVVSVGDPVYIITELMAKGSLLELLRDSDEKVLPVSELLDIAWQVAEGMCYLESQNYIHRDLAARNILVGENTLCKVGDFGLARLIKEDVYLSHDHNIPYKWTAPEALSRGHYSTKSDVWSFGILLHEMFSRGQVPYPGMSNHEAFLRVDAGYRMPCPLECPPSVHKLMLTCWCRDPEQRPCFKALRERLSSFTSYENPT

Structure (SMILES) | pIC50 (EGFR) | pIC50 (BTK) | GI50 (lymphoma cell line DOHH2; 72 hours) [nM] | in vivo half-life [4] | pIC50 (ITK) | Glutathione Conj Rate [5] [nmol/min] | pIC50 (JAK3) | pIC50 (LCK) | also measured
CN(C)C/C=C/C(=O)N1CCC[C@@H](n2nc(-c3ccc(Oc4ccccc4)cc3)c3c(N)ncnc32)C1 [Compound 2] | 7.31 | 8.96 | 320 | – | – | – | – | – | potency and selectivity in kinase panel [1]: highly potent and selective inhibitor
Nc1ncnc2c1c(-c1ccc(Oc3ccccc3)cc1)nn2[C@@H]1CCCCN1C(=O)/C=C/c1c[nH]cn1 [Compound 4] | – | 7.65 | – | – | – | – | – | – | time to reduced Egr-1 expression (Egr-1): ≤ 1 h; maximal downregulation of Egr-1 expression (Egr-1; achieved by 4 hr): 10 fold; pIC50 [2]: > 8.00; inhibition of pERK under BCR cross-linking [3]: overcomes inhibition of pERK
CN(C)C/C=C/C(=O)N1CCC(n2nc(-c3ccc(Oc4ccccc4)cc3)c3c(N)ncnc32)CC1 [Compound 7, (E)-1-(4-(4-amino-3-(4-phenoxyphenyl)-1H-pyrazolo[3,4-d]pyrimidin-1-yl)piperidin-1-yl)-4-(dimethylamino)but-2-en-1-one] | 6.57 | 8.20 | – | significantly longer in vivo half-life | 5.21 | 0.01 | < 5.00 | 8.59 | GI50 (lymphoma cell line DOHH2; Homo sapiens, DOHH-2, 72 hours): 317 nM
CN(C)C/C=C/C(=O)N[C@H]1CC[C@@H](n2nc(-c3ccc(Oc4ccccc4)cc3)c3c(N)ncnc32)CC1 [Compound 8, (E)-N-((1s,4s)-4-(4-amino-3-(4-phenoxyphenyl)-1H-pyrazolo[3,4-d]pyrimidin-1-yl)cyclohexyl)-4-(dimethylamino)but-2-enamide] | 7.08 | 8.85 | – | significantly longer in vivo half-life | – | – | – | – | –
C=CC(=O)N[C@H]1CC[C@@H](n2nc(-c3ccc(Oc4ccccc4)cc3)c3c(N)ncnc32)CC1 [Compound 9] | – | – | 11 | – | – | – | – | – | pIC50 (Lyn): 8.92; pIC50 (YES): 9.10; pIC50 (Fyn): 8.15; pIC50 (FER): 5.48; pIC50 (C-src): 7.84; pIC50 (FGR): 9.40; pIC50 (SYK): < 5.00; pIC50 (ABL): 7.49; pIC50 (CSK): 8.62; pIC50 (TEC): 6.97; pIC50 (BLK): 9.70; pIC50 (Brk): 8.48; pIC50 (HER4): 8.49; pIC50 (HER2): 5.81; paw inflammation [6]: reduced the increase in paw inflammation

More lines, main results first:

pIC50 (EGFR) | pIC50 (BTK) | GI50 (lymphoma cell line DOHH2; 72 hours) [nM] | in vivo half-life [4] | pIC50 (ITK) | Glutathione Conj Rate [5] [nmol/min] | pIC50 (JAK3) | pIC50 (LCK) | Structure (SMILES) | also measured
6.16 | 8.88 | > 10000 | short half-life in vivo | 4.84 | 0.004361 | < 5.00 | 8.22 | CN(C)C/C=C/C(=O)N1CCC[C@H]1Cn1nc(-c2ccc(Oc3ccccc3)cc2)c2c(N)ncnc21 [Compound 12, (E)-1-((S)-2-((4-amino-3-(4-phenoxyphenyl)-1H-pyrazolo[3,4-d]pyrimidin-1-yl)methyl)pyrolidin-1-yl)-4-(dimethylamino)but-2-en-1-one] | –
6.36 | 8.70 | – | – | 5.63 | 0.0243 | < 5.00 | 8.68 | CC#CC(=O)N1CCC[C@@H](n2nc(-c3ccc(Oc4ccccc4)cc3)c3c(N)ncnc32)C1 [Compound 17, 1-((R)-3-(4-amino-3-(4-phenoxyphenyl)-1H-pyrazolo[3,4-d]pyrimidin-1-yl)piperidin-1-yl)but-2-yn-1-one] | GI50 (lymphoma cell line DOHH2; Homo sapiens, DOHH-2, 72 hours): 210 nM
6.81 | 8.80 | < 40 | – | 5.43 | 0.014 | < 5.00 | 7.66 | CC#CC(=O)N[C@H]1CC[C@@H](n2nc(-c3ccc(Oc4ccccc4)cc3)c3c(N)ncnc32)CC1 [Compound 22, N-((1s,4s)-4-(4-amino-3-(4-phenoxyphenyl)-1H-pyrazolo[3,4-d]pyrimidin-1-yl)cyclohexyl)but-2-ynamide] | –
